Data on six molecules can be found in patent US20200392219A1, “EXTRACELLULAR VESICLES COMPRISING MEMBRANE-TETHERED TGF-BETA, COMPOSITIONS AND METHODS OF USE THEREOF” (TRUSTEES OF TUFTS COLLEGE, priority 2017, published 2020).

For test [1], the system named is CD4+ T cells (ConA-stimulated PBMC). Briefly: ConA mitogen-induced CD4+ T cell proliferation in CFSE-stained PBMC (PBMC responder/suppression assay). It is filed as cell-based, canine. Conditions: for effect of co-added inhibitor on WJ-MSC EV mediated suppression of CD4+ T cell division: 10 μM TGF-βRI inhibitor, 50 μM ZM241385, 0.1 μg/ml neutralizing antibody. On the procedure:
Serum-free culture medium from canine Wharton's Jelly mesenchymal stem cells (WJ-MSC: CD44^+, CD90^+, CD34^−, CD45^−, MHCII^−, n=6 cell lines) was collected after 48 hours, and extracellular vesicles (WJ-EV) were isolated by differential centrifugation. WJ-EV output was assessed using single vesicle nanoparticle tracking analysis (NTA). CFSE-stained peripheral blood mononuclear cells (PBMC) were collected from healthy dogs (n=8), exposed to Concanavalin A mitogen (ConA; 5 μg/ml) and co-incubated with WJ-MSC (1:10) across transwell membrane (0.4 μm pore size) or with WJ-MSC EV (1:10^4)±10 μM SB431542 (TGFβR1 inhibitor) or TGF-β neutralizing (e.g., inhibiting) antibody (Ab) for 72 hours. Analysis of CFSE fluorescence using FlowJo (v7.6.5) yielded % CD4^+ cells that had undergone division (T-cell proliferation).
PBMC responder assay: Twelve healthy adult purpose-bread Beagle dogs (5 neutered males, 7 spayed females) housed at the Laboratory Animal Medicine department at the Cummings School of Veterinary Medicine at Tufts University served as blood donors under an approved protocol. […] or WJ-MSC were tested in triplicate against a minimum of 3 different PBMC donor cell samples (see Figure legends for ‘n’ of each experiment). Healthy status was confirmed by clinical examination, and hematological and serum biochemical testing within six months of blood sampling. All dogs were fasted for 12 hours prior to peripheral blood sampling. Peripheral blood samples were taken via jugular venipuncture using a 21 gauge needle, and blood was immediately placed into an EDTA collection tube and rotated 1-2 times gently. Blood was diluted 1:1 with cold PBS or centrifuged (1300×g, 10 min) prior to dilution 1:2 in PBS, followed by density-gradient centrifugation using Ficoll-Paque (density 1.077; GE Healthcare Life Sciences) to harvest peripheral blood mononuclear cells (PBMC). PBMC were washed in RPMI (Life Technologies) supplemented with 10% heat-inactivated fetal bovine serum (Gibco), […] (Life Technologies), 100 μM β-mercaptoethanol (Sigma-Aldrich), 10,000 U/ml penicillin-streptomycin, 2 mM L-glutamine (Life Technologies), and 2.2 mg/mL of sodium bicarbonate (Thermo Fisher Scientific) (complete RPMI, ‘cRPMI’). For mitogen induced lymphocytes proliferation assays, PBMC were suspended in 1 ml cRPMI and 0.5 μof 10 mM carboxyfluorescein succinimidyl ester (CFSE, Thermo Fisher Scientific) and were incubated (10 min). For initial characterization of WJ-MSC effects on responder PBMC, PBMC were plated on a 24-well plate on the top of a 0.4 μm Transwell (Corning) across from the WJ-MSC in a 10:1 ratio (PBMC:MSC) in a total volume of 1 ml medium (n=3 technical replicates/sample). All plates were incubated at 37° C. in the dark for 72 hours prior to analysis.
Dose-responses of TV MSC-EV: To investigate the dose response of PBMC to WJ-MSC EV, the […] were plated on a 96-well plate in cRPMI with addition of 1 mM ATP, with or without 5 μg/ml Concanavalin A (ConA, Sigma-Aldrich). Responder PBMC were incubated with WJ-MSC EV in a total volume of 200 μL medium (n=3 technical replicates per sample). PBMC were incubated with WJ-MSC EV in a 1:10^2, 1:10^3, or 1:10^4 (PBMC:EV) ratio. After 72 hours of incubation, the PBMC were collected and surface stained for CD4 (rat anti-canine CD4-Alexa 647, clone YKIX302.9, AbD Serotec). Cells were stained for 30 minutes, washed twice with cold PBS and 5% FBS, and resuspended in 200 μl PBS and 5% FBS with 5 μl 7AAD (Becton Dickinson) for analysis by flow cytometry (Accuri C6, Becton Dickinson). The effect of WJ-MSC or WJ-MSC EV on CD4-positive (CD4^+) T cell (i.e., T helper cell) proliferation (percentage of cells proliferating, number of divisions for proliferating cells) was measured by evaluating CFSE fluorescence utilizing the FlowJo® proliferation platform (FlowJo, V10, Ashland, Oreg.) after gating on the viable CD4^+ lymphocyte population. […]

Another test concerns WJ-MSC. Briefly: EV (exosome) output from WJ-MSC under GW4869, by nanoparticle tracking analysis. It is filed as cell-based, canine. On the procedure: Particle size distribution using nanoparticle tracking analysis (NTA): Samples were analyzed using a NanoSight N300 unit (Malvern) equipped with a 488 nm (blue) laser module and Nanoparticle Tracking Analysis 3.0 software. All samples were diluted in sterile PBS to a concentration of 1-10×10^8 particles/mL for analysis. Specific NTA settings were optimized for each sample, with fixed settings of temperature (23° C.), screen gain (1.0), infusion flow rate (5 μL/min), and camera level set at 12-14 depending on sample characteristics. Five videos were recorded for each sample (30-120 s video length) with all settings remaining constant within each sample source to minimize variation. […] The NTA unit was periodically evaluated for accuracy of size determination using polystyrene beads of known size (100 and 200 nm).
EV depletion and enzymatic digestion experiments: EV were isolated as described, resuspended in 5 ml PBS, and divided into 5 fractions of 1 ml each. […] The EV sediment was resuspended in PBS and particle numbers were quantified using nanoparticle tracking analysis (NTA) as described supra. […] The retentate was resuspended in 1 ml PBS, and particle content was evaluated by NTA. […] As well, WJ-MSC EV, EV (10^4:1 PBMC) from conditioned medium of non-MSC fibroblasts (canine left ventricular cardiac fibroblasts) were evaluated for suppression of PBMC.

In the case of `NC(=O)c1ccc(-c2nc(-c3ccc4c(c3)OCO4)c(-c3ccccn3)[nH]2)cc1` [SB431542], the “effect of co-added inhibitor on WJ-MSC EV mediated suppression of CD4+ T cell division” value in test [1] (72 h) is listed as “significantly reduced”. In addition, the “% CD4+ division” value in test [1] (Example 2, 10 μM SB431542 added to ConA+WJ-EV, ConA+WJ-EV alone 23±13%) was determined as 52±17%.

Consider Triton-X, for which the “effect of pre-treating WJ-MSC EV on their suppression of CD4+ T cell division” value in test [1] (0.1% Triton-X, 2 μg/ml RNAse A, proteinase K 30 min 37°C, heparinase 0.006 U/ml 3 hours, 10^4 EV:1 PBMC) is on record as “completely abrogated”.

On to `Nc1nc(NCCc2ccc(O)cc2)nc2nc(-c3ccco3)nn12` [ZM241385], for which the “effect of co-added inhibitor on WJ-MSC EV mediated suppression of CD4+ T cell division” value in test [1] (72 h) is “significantly reduced”.

As for `O=C(/C=C/c1ccc(/C=C/C(=O)Nc2ccc(C3=NCCN3)cc2)cc1)Nc1ccc(C2=NCCN2)cc1` [GW4869], the “release of WJ-MSC-EV (particles released in 48 hours)” value in the test on WJ-MSC (increasing concentrations, n=3 WJ-MSC lines) is “decreased”. In addition, the “concentration giving maximal suppression of exosome output without unacceptable loss of viability” value in the test on WJ-MSC (increasing doses applied to WJ-MSC, 48 hours) lay within 5 to 10 µM. In addition, in test [1] (WJ-MSC pre-treated 48 hours at 6 μM, then across Transwell from PBMC with ConA, untreated WJ-MSC 28.2±1.4%), the “T cell division with WJ-MSC pre-treated with EV-release inhibitor” value is 51.7±13.5%.

Consider “IFN-γ: interferon-gamma used to pre-condition WJ-MSC”, for which the “further suppression by WJ-MSC or WJ-MSC EV after pre-conditioning of WJ-MSC” value in test [1] (WJ-MSC pretreated with 500 ng IFN-γ for 48 hours) is “not statistically significant”.

Take “soluble TGF-β1: recombinant human TGF-β1 (R&D Systems)”: the results for the “suppression of mitogen driven T cell division by exogenous TGF-β” value in test [1] (5 ng/ml added to ConA stimulated PBMC), in test [1] (10 ng/ml added to ConA stimulated PBMC) and in test [1] (50 ng/ml added to ConA stimulated PBMC) were “not”, “suppressed” and “suppressed”, respectively. Besides, the “% CD4+ division (CD4+ cells that had undergone division)” value in test [1] (Example 2, ConA 5 μg/ml, 72 h, WJ-MSC 1:10 across transwell, WJ-EV 1:10^4, ConA alone 60±17%) is reported as 21±10%.
